Measurements taken from paper PMC5884906, “Single Administration of HBK-15—a Triple 5-HT1A, 5-HT7, and 5-HT3 Receptor Antagonist—Reverses Depressive-Like Behaviors in Mouse Model of Depression Induced by Corticosterone” (Molecular Neurobiology, 2017).
Marks after values point to notes of the source that are not given here.

Legend:
[1] = test system: corticosterone-treated mice; test: forced swim test, single administration, corticosterone model; format: in vivo; conditions: single 1 mg/kg i.p., 30 min before the test
Experimental: (§1) Mice were injected with corticosterone (s.c., 20 mg/kg) at random times during the light phase for consecutive 21 days (Fig. 1c). The dose and route of administration of corticosterone were based on studies performed by Zhao and colleagues. After the end of the procedure, next day 30 min before the test, corticosterone-treated mice were given (i.p.) saline, HBK-15 (1.25 mg/kg), fluoxetine (10 mg/kg), or ketamine (1 mg/kg) (Fig. 1c). Control mice received (i.p.) saline. The experimental groups consisted of eight randomly selected animals. We chose the dose of HBK-15 that was active in the chronic experiments (i.e., 1.25 mg/kg). The dose of ketamine was based on the studies performed by Pazini and colleagues. Animals were tested in the forced swim test and spontaneous locomotor activity test. After behavioral testing, mice were scarified and their hippocampi collected for biochemical analysis.
Forced swim test was performed according to the method described by Porsolt and colleagues and previously described. Mice were placed individually for 6 min in glass cylinders (height 25 cm, diameter 10 cm) containing […] (23–25 °C). The total time of immobility was recorded during the final 4 min of the test. The experiments were recorded and scored using aLab.io software by a trained observer blind to the treatments.

[2] = test system: corticosterone-treated mice; test: spontaneous locomotor activity, single administration; format: in vivo; conditions: single 1 mg/kg i.p. in corticosterone-treated mice; 4 min
Experimental: as §1, with “After the end of the procedure, next day 30 min before the test, corticosterone-treated mice were given (i.p.) saline, HBK-15 (1.25 mg/kg), fluoxetine (10 mg/kg), or ketamine (1 mg/kg) (Fig. 1c).” left out
The locomotor activity was performed as previously described. Locomotor activity was recorded individually for each mouse using activity cages made of clear Perspex (40 cm × 40 cm × 31 cm, Activity Cage 7441, Ugo Basile, Italy). The cages were supplied with I.R. horizontal beam emitters connected to a counter for the recording of light-beam interruptions. Each mouse was placed in a cage for a 30-min habituation period. After that time, the number of crossings of photobeams was measured for 6 min (chronic studies) or for 4 min (acute experiments; i.e., the time equal to the observation period in the forced swim test). The cages were disinfected with 70% ethanol after each mouse.

[3] = test system: BDNF level in the hippocampus; test: BDNF level in the hippocampus (ELISA), single administration; format: in vivo, mice; conditions: single 1 mg/kg i.p., corticosterone-treated mice
Experimental: as §1
After the behavioral assessments, mice were sacrificed, and their brains were rapidly removed and chilled in an ice-cold saline solution. The hippocampi were dissected on a cold plate, frozen, and stored at −80 °C until assay. On the day of experiments, tissues were thawed on ice and homogenized (1:9 w/v) in phosphate-buffered saline (4 °C) and protease inhibitor cocktail was added. The 10% homogenates were prepared and homogenized for 30 s with TissueRuptor homogenizer. The homogenized tissues were centrifuged (2500×g at 4 °C for 20 min), and the supernatants were collected for further assays.
Protein concentrations of BDNF and NGF in homogenates from hippocampi were determined using the enzyme-linked immunosorbent assay (ELISA) kits (BDNF: DZE201020014, SunRed Biotechnology Company; NGF: MBS825100, MyBioSource) according to the manufacturer’s instructions. […] The samples were analyzed in duplicates, and the mean concentrations were calculated. […] The intensity of the color was read at 450 nm. Absorbance was measured in a multifunction plate reader (POLARstar Omega, BMG Labtech, Germany). […]

[4] = target: T1, 5-HT3 receptors expressed in guinea pig ileum (Cavia porcellus, UniProt O70212); set-up: method as in PMID 25847619; conditions: functional affinity; cited from earlier work
T1 construct: A segment (15 cm) of male guinea pig ileum was excised from the small intestine; from tissue; host or cells: isolated male guinea pig ileum segments in an organ bath
T1 sequence (O70212 20-490): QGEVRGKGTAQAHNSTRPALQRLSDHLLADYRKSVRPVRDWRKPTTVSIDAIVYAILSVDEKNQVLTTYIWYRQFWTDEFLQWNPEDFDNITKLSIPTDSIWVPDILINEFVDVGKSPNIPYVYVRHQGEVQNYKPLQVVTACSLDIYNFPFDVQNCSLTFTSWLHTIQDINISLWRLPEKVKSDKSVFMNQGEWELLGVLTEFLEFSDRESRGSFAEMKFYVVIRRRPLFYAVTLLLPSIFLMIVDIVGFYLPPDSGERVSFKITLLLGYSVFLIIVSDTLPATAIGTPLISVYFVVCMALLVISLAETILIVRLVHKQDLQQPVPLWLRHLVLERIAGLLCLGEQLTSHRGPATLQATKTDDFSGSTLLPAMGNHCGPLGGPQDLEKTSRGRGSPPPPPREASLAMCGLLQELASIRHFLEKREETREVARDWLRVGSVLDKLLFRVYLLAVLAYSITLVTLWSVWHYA

| SMILES | effect on corticosterone-induced increase in immobility [1] | Number of crossings ± S.E.M [2] | increase in BDNF level in the hippocampus compared with controls [3] [%] | 5-HT3 receptor pK B ± S.E.M [4] |
| --- | --- | --- | --- | --- |
| CNC1(c2ccccc2Cl)CCCCC1=O (stereo not shown) [ketamine] | reversed an increase in immobility | 248.7 ± 25.3 | 33 |  |
| Cc1nccn1CC1CCc2c(c3ccccc3n2C)C1=O (stereo not shown) [Ondansetron] |  |  |  | 7.111 ± 0.12^a |
